This is an account of results in patent EP3061351B1, “Food product for young subjects” (Dopharma Research B.V., priority 2015, dated 2016).

Each structure is given as a SMILES string.

The conditions of data set [1]: concentration of 4.2 µM, Akbari et al.; cited from earlier work.
For another data set, the system named is IPEC-J2 cells. The data set is described as follows: MTT assay, cytotoxicity of DON. In kind it is cell-based, porcine. As to conditions: 4.2 µM DON, confirmation of the literature, data not shown. The protocol: Intestinal porcine epithelial cells (IPEC-J2 passages 83 - 87) were a kind gift from prof. R. Pieters (IRAS, Utrecht University, The Netherlands). IPEC-J2 cells were cultured in 25 cm^2 cell culture flasks (Greiner Bio-One, Alphen a/d Rijn, The Netherlands) in Dulbecco's modified Eagle's medium (DMEM)/ Ham's F12 supplemented with 10% fetal bovine serum, penicillin (100 U/mL) and streptomycin (100 µg/mL) (Gibco, Life Technologies Europe, Bleiswijk, The Netherlands). IPEC-J2 cells were used for MTT analysis.
To confirm lack of cytotoxicity at 4.2 µM of DON as published previously by Akbari et al. (The FASEB Journal […]; 28, 2414-2429), an MTT assay using IPEC-J2 cells was performed in a 96-well plate. The MTT assay assesses cell viability by analyzing the capability of cells to reduce the tetrazolium dye MTT (3-(4,5-dimethylthiazol-2-yl)-2.5-diphenyltetrazolium bromide, Sigma Aldrich, Zwijndrecht, The Netherlands) into the purple colored formazan. Using colorimetric analysis, the cell viability is quantified. For the MTT assay, a 5 mg/ml MTT-stock was prepared in PBS and this was diluted six times in 10% FBS in medium. Supernatant was aspirated and cells were incubated with 100 µl of the MTT solution. This was incubated for 3 hours in the incubator. […] Plate was shaken at low intensity for ten minutes and absorption at 560 nm was measured using spectrophotometer (Fluostar Omega, BMG Labtech).
(Tetrazolium assays rely on reduction of a dye to a coloured formazan, in cell work by metabolically active cells.)

Data set [2] has as its system Caco-2 cells. The data set is described as follows: TEER measurements of Caco-2 monolayer challenged with DON. It is filed as cell-based. As to conditions: 4.2 µM DON, 24 hours. The protocol: (§1) Caco-2 cells were cultured in minimal essential media (MEM), supplemented with 10% FBS, 1% non essential amino acids (NEAA), 1% pyruvate, penicillin (100 U/mL) and streptomycin (100 µg/mL), all from Gibco (Life Technologies Europe, Bleiswijk, The Netherlands). Experiments with Caco-2 cells were conducted with cells grown on sterile 0.3 cm2 transwell with 0.4 µm pore polyester membrane inserts placed in a 24-well plate (Corning, Sigma-Aldrich, The Netherlands), if not stated otherwise. The cells were seeded at a density of 1 * 10^5 cells per insert. The cell culture plates were incubated at 37°C, in a humidified atmosphere with 5% CO2. […] The cell culture was regularly tested and found to be free of mycoplasma contamination.
Caco-2 cells were cultured as described above. The integrity of the monolayer was evaluated on a regular basis using the first two 24-well plates during 21 days. To avoid contamination, in the next well plates, TEER was only measured right before the start of the experiment. On average, TEER values for untreated cells were 550 ± 24 Ω˙cm2. […]
Caco-2 and IPEC-J2 cells were grown on inserts and in 12 well plates respectively. […] TEER was measured as described above. Interleukin-8 (IL-8) was analyzed using porcine CXCL8/IL-8 DuoSet ELISA kit (DY535, R&D systems Abbingdon, UK) according to the manufacturer's protocol. […]

For data set [3] the following is noted: 4.2 µM for 24 hours, Akbari et al.; cited from earlier work.
Data set [4] concerns Caco-2 cells. As to the kind of experiment: Interleukin-8 production of DON-challenged Caco-2 cells (ELISA). In kind it is cell-based. As to conditions: apical side, 24 h incubation with 4.2 µM DON, digests 1:100 added 2 hours before DON. The protocol: as §1
Caco-2 and IPEC-J2 cells were grown on inserts and in 12 well plates respectively. Confluent layers of cells were incubated with 1:100 dilutions of digests 2 hours prior to addition of DON. Cells were then incubated in the presence of both digests and DON for 24 hours prior to analysis. TEER was measured as described above. Interleukin-8 (IL-8) was analyzed using porcine CXCL8/IL-8 DuoSet ELISA kit (DY535, R&D systems Abbingdon, UK) according to the manufacturer's protocol. Apical an basolateral supernatant of transwell plates were used for analysis. Samples were diluted ten times in PBS. […]
On the technique in general: An ELISA detects its analyte on a solid surface through an enzyme-linked reagent.

The next data set has as its system streptococci. As to conditions: among naturally present medium and long chain free fatty acids, Kabara et al. 1972; cited from earlier work.

With `CC1=C[C@H]2O[C@@H]3[C@H](O)C[C@](C)([C@@]2(CO)[C@H](O)C1=O)[C@]31CO1` [DON, Deoxynivalenol], in data set [1], the direct cytotoxicity entry is given as “not cytotoxic”. Moreover, the “cytotoxicity (MTT assay)” value with IPEC-J2 cells was “not cytotoxic”. Further, the “TEER decrease as compared to control” value in the data set with Caco-2 cells [2] is 15%. Further, in data set [3], the TEER reduction is recorded as around 80%. Moreover, the IL8 production in the data set with Caco-2 cells [4] was determined as 121.7 pg/mL.
On to `CCCCCCCCCCCC(=O)O` [lauric acid], for which, in the data set with streptococci, the activity against streptococci entry is “among the most active free fatty acids”.
Turning to `CCCCCC/C=C\CCCCCCCC(=O)O` [palmitoleic acid], in the data set with streptococci, the activity against streptococci result is recorded as “among the most active free fatty acids”.
